Consider 8 molecules from ChEMBL document CHEMBL1158318, “Two 5-HT 1A Receptor-Interactive Tryptamine Derivatives from the Unripe Fruit of Evodia rutaecarpa” (J Nat Prod, 1997).

Bounds are passed on as bounds.

The experiment has as its target T1, 5-hydroxytryptamine receptor 1A (Homo sapiens, UniProt P08908).
T1 sequence (P08908 whole entry): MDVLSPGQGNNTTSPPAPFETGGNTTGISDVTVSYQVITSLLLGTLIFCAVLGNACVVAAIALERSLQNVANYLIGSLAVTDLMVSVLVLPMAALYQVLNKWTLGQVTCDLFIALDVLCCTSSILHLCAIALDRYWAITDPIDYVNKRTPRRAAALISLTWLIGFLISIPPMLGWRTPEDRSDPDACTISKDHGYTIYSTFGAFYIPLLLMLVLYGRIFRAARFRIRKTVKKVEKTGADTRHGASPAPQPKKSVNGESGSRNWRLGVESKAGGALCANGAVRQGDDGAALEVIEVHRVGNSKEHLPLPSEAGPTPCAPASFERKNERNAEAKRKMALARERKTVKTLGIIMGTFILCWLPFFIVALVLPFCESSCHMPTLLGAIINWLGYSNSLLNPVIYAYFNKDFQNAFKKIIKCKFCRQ
Put plainly: Displacement of [3H]8-OH-DPAT from 5HT1A receptor by vacuum filtration. For orientation: In a radioligand displacement assay an active substance lowers the binding of a labelled ligand.
By Ki is commonly meant the equilibrium dissociation constant of an inhibitor or competing ligand from its target. A low value points to higher affinity. On to `COc1cc(-c2oc3cc(O)cc(O)c3c(=O)c2O[C@@H]2O[C@H](CO)[C@H](O)[C@H](O)[C@H]2O)ccc1O`, for which the Ki was over 100 µM. In turn, `C[n+]1c2n(c(=O)c3ccccc31)CCc1c-2[nH]c2ccccc12` [DEHYDROEVODIAMINE] registered an inhibition constant (Ki) of 36 µM. Consider `CN1c2ccccc2C(=O)N2CCc3c([nH]c4ccccc34)[C@H]21` [EVODIAMINE], for which the Ki was over 100 µM. To `O=c1c(O[C@@H]2O[C@H](CO)[C@H](O)[C@H](O)[C@H]2O)c(-c2ccc(O)c(O)c2)oc2cc(O)cc(O)c12` [HYPEROSIDE] belongs over 100 µM. Turning to `CC1(C)O[C@H]2CC(=O)OC[C@]23[C@H]2CC[C@@]4(C)[C@H](c5ccoc5)OC(=O)[C@H]5O[C@]54[C@]2(C)C(=O)C[C@@H]13` [LIMONIN], the inhibition constant Ki was over 100 µM. With `CNCC(O)c1ccc(O)cc1` (stereo not drawn) [OXEDRINE] the figure was 63 µM. With `CNc1ccccc1C(=O)N1CCc2c([nH]c3ccccc23)C1=O` [RHETSININE] the figure was 32 µM.

In the case of `O=c1c2ccccc2nc2n1CCc1c-2[nH]c2ccccc12` [RUTAECARPINE], the Ki is over 100 µM.
